Experimental data as given in patent US5110800A, “Derivatives of erythromycylamine” (Eli Lilly and Company, priority 1989, dated 1992).
In brackets after ≈: the same amount, converted by molar mass. Where two headings read alike, the source gives them in different places.

Experiments:
Test in all cases: MIC, standard agar-dilution assay
Type in all cases: cell-based
[1] = test system: Haemophilus influenzae C.L.; details: Haemophilus influenzae, read-out: minimal inhibitory concentration (MIC)
[2] = test system: Staphylococcus aureus S13E; details: Staphylococcus aureus, S13E, read-out: minimal inhibitory concentration (MIC)
[3] = test system: Staphylococcus aureus X400; details: Staphylococcus aureus, X400; Table IV; methicillin-resistant strain; inducibly erythromycin-resistant; read-out: minimal inhibitory concentration (MIC)
Source text: (§1) In addition to excellent in vitro activity against erythromycin-sensitive bacteria, several members of this new series have shown in vitro activity against erythromycin-resistant strains. These include strains which are inducibly-resistant to erythromycin (S. aureus V41 and X400 and S. epidermidis EPI1) and even strains which are constitutively-resistant (S. epidermidis 270).

[4] = test system: Staphylococcus epidermidis 270; details: Staphylococcus epidermidis, 270; Table IV; constitutively erythromycin-resistant; read-out: minimal inhibitory concentration (MIC)
Source text: as §1

[5] = test system: Staphylococcus aureus V41; details: Staphylococcus aureus, V41; Table IV; penicillin-resistant strain; inducibly erythromycin-resistant; read-out: minimal inhibitory concentration (MIC)
Source text: as §1

[6] = test system: Escherichia coli EC14; details: Escherichia coli
[7] = test system: Streptococcus pneumoniae Park I; details: Streptococcus pneumoniae, read-out: minimal inhibitory concentration (MIC)
[8] = test system: Streptococcus pyogenes C203; details: Streptococcus pyogenes, C203, read-out: minimal inhibitory concentration (MIC)
[9] = test system: Haemophilus influenzae 76
[10] = test system: Klebsiella pneumoniae X68; details: Klebsiella pneumoniae
[11] = test system: Streptococcus sp. group D X66; details: Streptococcus, read-out: minimal inhibitory concentration (MIC)
[12] = test system: Streptococcus sp. group D 2041; details: Streptococcus, read-out: minimal inhibitory concentration (MIC)
[13] = test system: Staphylococcus aureus X1.1; details: Staphylococcus aureus, X1.1, read-out: minimal inhibitory concentration (MIC)
[14] = test system: Staphylococcus epidermidis 222; details: Staphylococcus epidermidis, 222, read-out: minimal inhibitory concentration (MIC)
[15] = EC14, read-out: minimal inhibitory concentration (MIC)
[16] = Haemophilus influenzae, 76, Table IV, ampicillin-resistant strain, read-out: minimal inhibitory concentration (MIC)
[17] = Haemophilus influenzae, 76, read-out: minimal inhibitory concentration (MIC)
[18] = X68, Table IV, agar dilution, read-out: minimal inhibitory concentration (MIC)

Q: With CC[C@H]1OC(=O)[C@H](C)[C@@H](O[C@H]2C[C@@](C)(OC)[C@@H](O)[C@H](C)O2)[C@H](C)[C@@H](O[C@@H]2O[C@H](C)C[C@H](N(C)C)[C@H]2O)[C@](C)(O)C[C@@H](C)[C@H](NCCOCCOC)[C@H](C)[C@@H](O)[C@H]1C [Compound 49] as the compound, how does the MIC ([1]; Table IV, ampicillin-sensitive strain) read?
A: 4 µg/mL (≈ 4.87 µM)

Q: And the MIC [2]?
A: 0.5 µg/mL (≈ 0.609 µM)

Q: What about the MIC [3] of the same compound?
A: > 128 µg/mL

Q: What about the MIC [4] of the same compound?
A: > 128 µg/mL

Q: What about the MIC [5] of the same compound?
A: 128 µg/mL (≈ 156 µM)

Q: And the MIC [6, 15]?
A: 128 µg/mL (≈ 156 µM)

Q: What about the MIC [7] of the same compound?
A: 0.015 µg/mL (≈ 0.0183 µM)

Q: What about the MIC [8] of the same compound?
A: 0.015 µg/mL (≈ 0.0183 µM)

Q: What about the MIC [9, 16] of the same compound?
A: 8 µg/mL (≈ 9.74 µM)

Q: And the MIC ([10]; X68, read-out: minimal inhibitory concentration (MIC))?
A: 128 µg/mL (≈ 156 µM)

Q: And the MIC [11]?
A: 0.25 µg/mL (≈ 0.304 µM)

Q: What about the MIC ([12]; Table IV, agar dilution) of the same compound?
A: 4 µg/mL (≈ 4.87 µM)

Q: What about the MIC [13] of the same compound?
A: 1 µg/mL (≈ 1.22 µM)

Q: What about the MIC [14] of the same compound?
A: 1 µg/mL (≈ 1.22 µM)

Q: CC[C@H]1OC(=O)[C@H](C)[C@@H](O[C@H]2C[C@@](C)(OC)[C@@H](O)[C@H](C)O2)[C@H](C)[C@@H](O[C@@H]2O[C@H](C)C[C@H](N(C)C)[C@H]2O)[C@](C)(O)C[C@@H](C)[C@H](NCC2CCCCCCC2)[C@H](C)[C@@H](O)[C@]1(C)O [Compound 16, 9-Deoxo-9-[(cyclooctylmethyl)amino]erythromycin] was tested. Which MIC [4] did it give?
A: > 128 µg/mL

Q: What about the MIC [9, 17] of the same compound?
A: 1 µg/mL (≈ 1.16 µM)

Q: And the MIC [10, 18]?
A: > 128 µg/mL

Q: What about the MIC [12] of the same compound?
A: 1 µg/mL (≈ 1.16 µM)

Q: What about the MIC [13] of the same compound?
A: 0.5 µg/mL (≈ 0.582 µM)

Q: What about the MIC [14] of the same compound?
A: 0.25 µg/mL (≈ 0.291 µM)

Q: Which MIC [3] does the source give for CC[C@H]1OC(=O)[C@H](C)[C@@H](O[C@H]2C[C@@](C)(OC)[C@@H](O)[C@H](C)O2)[C@H](C)[C@@H](O[C@@H]2O[C@H](C)C[C@H](N(C)C)[C@H]2O)[C@](C)(O)C[C@@H](C)[C@H](NCCCSC)[C@H](C)[C@@H](O)[C@]1(C)O [Compound 26, 9-Deoxo-9-[[3-(methylthio)propyl]amino]erythromycin] here?
A: > 128 µg/mL

Q: What about the MIC [4] of the same compound?
A: > 128 µg/mL

Q: What about the MIC [5] of the same compound?
A: > 128 µg/mL

Q: And the MIC [6, 15]?
A: 128 µg/mL (≈ 156 µM)

Q: And the MIC [7]?
A: 0.015 µg/mL (≈ 0.0182 µM)

Q: What about the MIC [8] of the same compound?
A: 0.015 µg/mL (≈ 0.0182 µM)

Q: What about the MIC [10, 18] of the same compound?
A: > 128 µg/mL

Q: And the MIC [11]?
A: 0.25 µg/mL (≈ 0.304 µM)

Q: Which MIC [1] does the source give for CCCCN[C@@H]1[C@H](C)[C@@H](O)[C@](C)(O)[C@@H](CC)OC(=O)[C@H](C)[C@@H](O[C@H]2C[C@@](C)(OC)[C@@H](O)[C@H](C)O2)[C@H](C)[C@@H](O[C@@H]2O[C@H](C)C[C@H](N(C)C)[C@H]2O)[C@](C)(O)C[C@H]1C [Compound 4, 9-Deoxo-9-(n-butylamino)erythromycin] here?
A: 1 µg/mL (≈ 1.26 µM)

Q: And the MIC [3]?
A: > 128 µg/mL

Q: And the MIC [4]?
A: > 128 µg/mL

Q: What about the MIC [5] of the same compound?
A: > 128 µg/mL

Q: And the MIC [7]?
A: 0.015 µg/mL (≈ 0.019 µM)

Q: What about the MIC [8] of the same compound?
A: 0.06 µg/mL (≈ 0.0758 µM)

Q: And the MIC [9, 17]?
A: 1 µg/mL (≈ 1.26 µM)

Q: And the MIC [11]?
A: 0.125 µg/mL (≈ 0.158 µM)

Q: And the MIC [12]?
A: 1 µg/mL (≈ 1.26 µM)

Q: And the MIC [13]?
A: 0.25 µg/mL (≈ 0.316 µM)

Q: What about the MIC [14] of the same compound?
A: 0.25 µg/mL (≈ 0.316 µM)

Q: With CC[C@H]1OC(=O)[C@H](C)[C@@H](O[C@H]2C[C@@](C)(OC)[C@@H](O)[C@H](C)O2)[C@H](C)[C@@H](O[C@@H]2O[C@H](C)C[C@H](N(C)C)[C@H]2O)[C@](C)(O)C[C@@H](C)[C@H](NC)[C@H](C)[C@@H](O)[C@]1(C)O [Compound 1, 9-Deoxo-9-(methylamino)erythromycin] as the compound, how does the MIC [4] read?
A: > 128 µg/mL

Q: What about the MIC [8] of the same compound?
A: 0.06 µg/mL (≈ 0.0801 µM)

Q: What about the MIC [9, 17] of the same compound?
A: 1 µg/mL (≈ 1.34 µM)

Q: What about the MIC [11] of the same compound?
A: 0.125 µg/mL (≈ 0.167 µM)

Q: And the MIC [12]?
A: 1 µg/mL (≈ 1.34 µM)

Q: And the MIC [13]?
A: 1 µg/mL (≈ 1.34 µM)

Q: And the MIC [14]?
A: 0.25 µg/mL (≈ 0.334 µM)

Q: Which results are given for C=CCCCCCCCCCN[C@@H]1[C@H](C)[C@@H](O)[C@](C)(O)[C@@H](CC)OC(=O)[C@H](C)[C@@H](O[C@H]2C[C@@](C)(OC)[C@@H](O)[C@H](C)O2)[C@H](C)[C@@H](O[C@@H]2O[C@H](C)C[C@H](N(C)C)[C@H]2O)[C@](C)(O)C[C@H]1C [Compound 28, 9-Deoxo-9-[(undec-10-enyl)amino]erythromycin]?
A: MIC [1]: 2 µg/mL (≈ 2.25 µM); MIC [2]: 2 µg/mL (≈ 2.25 µM); MIC [3]: 8 µg/mL (≈ 9.02 µM); MIC [4]: 32 µg/mL (≈ 36.1 µM); MIC [5]: 8 µg/mL (≈ 9.02 µM); MIC ([6]; EC14, Table IV, agar dilution, read-out: minimal inhibitory concentration (MIC)): > 128 µg/mL; MIC [8]: 1 µg/mL (≈ 1.13 µM); MIC [9, 16]: 2 µg/mL (≈ 2.25 µM); MIC [10, 18]: > 128 µg/mL; MIC [11]: 0.125 µg/mL (≈ 0.141 µM); MIC [12]: 2 µg/mL (≈ 2.25 µM); MIC [13]: 2 µg/mL (≈ 2.25 µM); MIC [14]: 1 µg/mL (≈ 1.13 µM)
